Results on two substances are retold here after patent publication US20240216250A1, “COSMETIC PEPTIDES FOR IMPROVING SKIN REJUVENATION” (Lean Life Sciences, Inc., priority 2021, published 2024).

Ends that are not written are not given here.

In one series the test system is 3T3-L1 fibroblast. Description: Collagen and fibronectin production in 3T3-L1 fibroblast by ELISA, with cell number. It is filed as cell-based, mouse. Particulars: across treatment groups. The source says:
Effects of […] (SEQ ID NO: 5) on collagen and fibronectin production are validated in mouse fibroblast. A mouse fibroblast cell line is purchased from American Type Culture Collection (ATCC) to be used in all in vitro studies (3T3-L1 CL-173). The cells are first thawed into two T75 flasks per 1 million cell vial in basal medium I (BMI), which is composed of DMEM (4.5 g/l glucose) supplemented with 10% FBS and 1% Penicillin Streptomycin (P/S). The media is changed the following day, and on day 3, the cells are seeded in 96-well plates (200 μl/well). The peptide was administered to 3T3-L1 fibroblast in five varying concentrations. Collagen and fibronectin produced from the cell was assessed in the cell culture media 3 days after the peptide treatment by ELISA.
A general note: In an ELISA, binding on a coated surface is turned into a signal by an enzyme label.

The subject of the next series is 3T3-L1 cells. Description: Fructose, glucose and sucrose concentration in adipocytes (3T3-L1 cell lysates, Fructose Assay Kit). It is filed as cell-based, mouse. As to conditions: Examples 1-2 to 1-11, same manner as Example 1-1. The method, then: Fructose concentration in 3T3-L1 cell lysates was measured using the Fructose Assay Kit (Abcam, Cambridge, UK). Six-well plates were seeded with 5×10^5 3T3-L1 cells/well one day before treating with 150 μM peptide. After 48 hours of treatment, the cells were harvested and fructose concentrations were assayed according to the manufacturer's instruction.
In order to confirm the effect of peptides on reducing the fructose level in adipocytes, three groups of adipocytes were prepared. Among the three groups, one group was treated with GGR, and another group was treated with RAK. The remaining group was not treated with any peptides and used as a control group. […] Fructose—an intermediate metabolite of glucose—was measured to further probe glucose metabolism. 3T3-L1 cells treated with either peptide had lower fructose concentrations than untreated cells (FIG. 1).
An additional group of adipocytes are treated with one of KGGRAKD, KGG, GGR, GRA, RAK, AKD, DKA, KAR, ARG, RGG, GGK, and DKARGGK in the same manner as Example 1-1.

The target in the next series is T1, prohibitin (Mus musculus, UniProt P67778).
T1 construct: Fractionated proteins isolated from adipocytes were incubated with the ATS magnetic beads; endogenous in cells; probably 3T3-L1
T1 sequence (P67778 2-272 limits assumed): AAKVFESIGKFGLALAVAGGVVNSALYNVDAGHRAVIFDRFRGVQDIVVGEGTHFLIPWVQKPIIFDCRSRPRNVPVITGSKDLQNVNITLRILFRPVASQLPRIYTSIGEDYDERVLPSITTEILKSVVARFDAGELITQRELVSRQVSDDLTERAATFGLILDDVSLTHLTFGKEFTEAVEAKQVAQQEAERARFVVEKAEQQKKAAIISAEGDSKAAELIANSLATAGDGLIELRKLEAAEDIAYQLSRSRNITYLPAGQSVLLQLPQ
Description: ATS/prohibitin binding by ATS magnetic beads, immunoprecipitation and western blot. As to conditions: fractionated proteins from adipocytes captured on ATS magnetic beads, western blotting (A of FIG. 2). The source says: FIG. 2: ATS/prohibitin binding determined by immunoprecipitation and western blot (A of FIG. 2). Location and degree of prohibitin expression in pre- or mature adipocytes. PM, plasma membrane; Cyt, Cytoplasm (B of FIG. 2). Confocal micrographs showing the location of prohibitin in mature- or pre-adipocytes (C of FIG. 2).
It was confirmed that prohibitin shifts its location to the cell membrane as adipogenesis progresses and ATS binds to prohibition. The ATS/prohibitin binding was verified in pre- or mature adipocytes (Won, Y. W. et al. Nat Mater 13, 1157-1164, (2014)). Fractionated proteins isolated from adipocytes were incubated with the ATS magnetic beads and the protein captured by ATS was identified by western blotting. […] Prohibitin is observed in several intracellular locations at varying expression levels depending on the degree of adipogenesis (Wang, P. et al. Cell Mol Life Sci 61, 2405-2417, (2004); Patel, N. et al. Proceedings of the National Academy of Sciences of the United States of America 107, 2503-2508, (2010)). The degree and location of prohibitin expression in pre- or mature adipocytes was determined. […] Confocal microscopy also verified the prohibitin expression on the cell membrane of mature adipocytes (C of FIG. 2). High-level prohibitin expression on the cell membrane of mature adipocytes is important to the ATS/prohibitin interaction.
For orientation: In western blotting, separated proteins are transferred to a membrane and probed.

A further series has as its system 3T3-L1 mature adipocytes. Description: Lipid accumulation in 3T3-L1 adipocytes by Oil Red O staining, with cell count. As to conditions: Oil Red O, microscopy, peptides at 100 μM, three times per week for three weeks (Day 21), vs non-treated control. It is filed as cell-based, mouse. The method, then: FIG. 3: Representative photomicrographs showing Oil Red O-stained mature adipocytes treated with peptides at 100 μM (Day 21). H: Quantitative analysis of the lipids accumulated in the adipocytes (Day 21). Control absorbance: 0.526 (Red line). I: Relative cell counts on day 21.
The effects of the minimal short peptides in blocking lipid accumulation in adipocytes were compared with their parent full-length peptide. After generating five different 3 amino acid fragments (KGG, GGR, GRA, RAK, and AKD) from the original ATS peptide (KGGRAKD (SEQ ID NO:1)), each peptide was administered to 3T3-L1 pre-adipocytes in five varying concentrations. Peptides were treated to the adipocytes three times per week for three weeks. Oil Red O staining was utilized to assess the lipid contents in mature adipocytes in culture. The morphological characteristics of 3T3-L1 mature adipocytes were observed by microscopy. […] Furthermore, the lipids were quantitatively analyzed.
The number of viable cells is counted prior to Oil Red O staining using Cell Counting Kit 8 (Dojindo). This cell viability study allows one to determine potential toxicities of the peptides and compensate for cell number variation-causing artifacts. Oil Red O is dissolved in isopropanol at […] to create a working solution. 12 ml of Oil Red O working solution is mixed with 8 ml dH2O and incubated for 10 minutes. This solution is then filtered using a 0.2 μm syringe filter. Adipocytes seeded on 96-well plates are washed with PBS twice. 10% formaldehyde is added for initial fixation and the plates are incubated for at least 30 minutes. The formaldehyde is removed and the cells are once again washed twice, this time with dH2O. 60% isopropanol is added to each well. The plates are incubated for 5 minutes. The isopropanol is removed from the wells and replaced with Oil Red O working solution. The plates are incubated for an additional 10 minutes. The Oil Red O solution is removed and washed four times with dH2O. Lastly, digital micrographs of the lipid droplets in adipocytes are taken using a light microscope. After the staining protocol, all plates are washed three times with 60% isopropanol. Each time, 5 minutes of gentle rocking was used. The Oil Red O is extracted with 100% isopropanol with gentle rocking for 5 minutes. 200 μl isopropanol per well is used as a background to measure absorbance at 492 nm using a BioTek microplate reader.

Regarding ACTGSTQHQGGGSESPLKRQG, in the series on 3T3-L1 fibroblast, the “Cell number at the end point (toxicity)” value is reported as “almost the same across the treatment groups”.
For KGGRAKD, the “Fructose concentration in adipocytes vs control group” value with 3T3-L1 cells was “significantly lower than the control group”. For the same substance, the “Binding of ATS to prohibitin” value with prohibitin is given as “specifically binds to prohibitin”. Moreover, the “Number and size of lipid droplets in adipocytes” value with 3T3-L1 mature adipocytes is listed as “smaller than those in the non-treated control”.
